Measurements published in patent publication US10577340B1, “Beraprost-314d crystals and methods for preparation thereof” (CHIROGATE INTERNATIONAL INC., priority 2018, dated 2020).
“Also recorded” adds a separate entry of the source.

Assays:
[1] = Crystalline form transformation from Form III to Form II at room temperature; type: physicochemical; settings: FIG. 5
Procedure: (§1) X-ray Powder Diffraction (XRPD) Analysis: The XRPD patterns were collected on a Bruker D2 PHASER diffractometer with fixed divergence slits and ID LYNXEYE detector. The samples (ca. 100 mg) were flatly placed on a sample holder. The prepared samples were analyzed over a […] from 5° to 50° with step size of 0.02 degrees and step time of 1 second using CuKα radiation at a power of 10 mA and 30 kV. The CuKβ radiation was removed by a divergent beam nickel filter.
The Beraprost-314d crystal Form III (0.5 g, from Example 5) was placed in a glass vial, and isothermal at room temperature for 1 day.

[2] = Storage stability of the crystalline form (crystalline form change, degradation products); type: physicochemical; settings: six months
Procedure: as §1

time until conversion to Beraprost-314d crystal Form II ([1]; keeping at room temperature) [days] | Substance | crystalline form transformation ([1]; glass vial, isothermal at room temperature for 1 day) | stability during storage (other crystalline forms, degraded products) ([2]; normal storage temperatures (about −20° C.)) | stability during storage (other crystalline forms) ([2]; room temperature (about 20 to 25° C.))
≤ 1 | Beraprost-314d [Beraprost-314d crystal Form III] | completely converted to Beraprost-314d crystal Form II |  | 
 | Beraprost-314d [Beraprost-314d crystal Form II] |  | no other crystalline forms or degraded products of impurities; also recorded: good stability with no other crystalline forms | good stability with no other crystalline forms
